From patent publication US7078434B1, “Use of Ginkgo extract” (Societe de Conseils de Recherches et d'Applications …, priority 1999, dated 2006) come the findings set out here.

Data set [1] deals with MDA-231 cells. Briefly: BrdU cell proliferation assay, MDA-231.
Experimental: 4 h prior to the end of incubation, bromodeoxyuridine (BrdU) was added to each well. Incorporation of BrdU was measured at 450 nm (reference=700 nm). Data points represent the mean±S.D. of four independent experiments carried out in quadruplicate.
4 h prior to the end of incubation, bromodeoxyuridine (BrdU) was added to each well. Incorporation of BrdU was measured at 450 nm (reference=700 nm). Data points represent the mean±S.D. of two independent experiments carried out in quadruplicate.
MDA-231 cells grown in 96-well plates were washed with PBS and cultured in media supplemented with 10% FBS in the presence or absence of either 2 μg/ml or 20 μg/ml GKB for 48 hours. 4 h prior to the end of incubation, bromodeoxyuridine (BrdU) was added to each well. Incorporation of BrdU was measured at 450 nm (reference=700 nm). Data points represent the mean±S.D. of two independent experiments carried out in quadruplicate.
Cell lines were cultured on polystyrene culture dishes (Corning) and grown in Dulbecco's modified Eagle medium (DMEM) supplemented with 10% fetal bovine serum (FBS). […] BrdU Cell Proliferation Assays. MDA-231 cells were plated on 96-well plates (Corning, Corning, N.J.) at a concentration of approximately 10,000 cells/well (24 h incubation) or approximately 5,000 cells/well (48 h incubation) in DMEM supplemented with 0.1% FBS. […] Differences in cell proliferation were analyzed by measuring the amount of 5-bromo-2′deoxyuridine (BrdU) incorporation determined by the BrdU ELISA (Boehringer Mannheim, Indianapolis, Ind.). Incorporation of BrdU was measured at 450 nm (reference at 690 nm).
The subject of data set [2] is MCF-7 cells. Description: BrdU cell proliferation assay, MCF-7. The data set is classed as cell-based, human. As to conditions: 48 hours, 20 or 200 μg/ml EGB 761® or 2 or 20 μg/ml GKB; compared with MDA-231. The source says: (§1) Cell Culture and Treatments. […] Radioligand Binding Assays. […] RNA (Northern) Analysis. […] Nucleic Acid Arrays. […] BrdU Cell Proliferation Assays. […] Analysis of oxidative stress. […] Biological Evaluation In Vivo. […] Immunocytochemistry of MDA-231 tumors. […] Statistical Analysis. […] (FIG. 5).

In data set [3] the test system is peripheral-type benzodiazepine receptor (PBR). Briefly: PBR ligand binding capacity of treated MDA-231 cells ([3H]PK 11195 saturation binding, Scatchard analysis). The class given is cell-based, human. As to conditions: % of control values.
Text: as §1

Data set [4] relates to PBR mRNA. Briefly: RNA (Northern) blot analysis of PBR mRNA in MDA-231 cells. The data set is classed as cell-based, human. Particulars: 48 hours, 20 or 200 μg/ml EGB 761® or 2 or 20 μg/ml GKB.
Text: as §1

In data set [5] the test system is MDA-231 cells. Description: Additional cytotoxicity assays. The class given is cell-based. As to conditions: human. The text has this:
It is of interest to note that even in the presence of high concentrations of either EGB 761® or GKB, PBR levels and rates of cell proliferation could not be reduced below 30% of normal values. […] It should be also noted that even at the highest concentrations used, neither EGB 761® nor GKB were toxic for the cells, because cell proliferation recovered upon removal of the compounds.

Data set [6] relates to MDA-231 cell free radical production. Briefly: Analysis of oxidative stress (2,7-DCF fluorescent probe) in MDA-231 cells. The class given is cell-based, human.
Text: as §1

Data set [7] concerns PBR. Briefly: Immunocytochemistry of MDA-231 tumors with anti-PBR antiserum. The class given is in vivo, human. Particulars: 50 mg/kg EGB 761® per os or 1 mg/kg GKB ip. On the procedure:
Formalin embedded sections of MDA-231 xenografts were immunostained with an anti-PBR antiserum at 1:500 dilution as described in the Materials and Methods section. MDA-231 tumors were obtained from animals treated with vehicle (A–D), 50 mg/kg EGB 761® per os (E, G), or 1 mg/kg GKB ip (F, H). […] Arrowheads indicate nuclei. Magnification is ×75 for A, B, C, E, F, G, and H and ×150 for […].
as §1

For data set [8], the system named is MDA-231 xenografts. Description: MDA-231 human breast cancer xenograft model in nude mice. On the technique in general: In xenograft studies the graft and the host belong to different species.
Experimental: After the end of the treatment the animals were kept for 30 more days and then the animals were sacrificed on day 60. Data shown are means±S.E.M. (n=10).
Biological Evaluation In Vivo. […] Twice weekly tumor sizes and body weights were recorded for all animals for the 30 days of treatment as well for 30 days after the end of the treatment. At that time the animals were sacrificed and the tumors were removed and processed for immunohistochemistry. Animal care was in accordance with institutional guidelines. […] Statistical Analysis.

Each structure is given as a SMILES string. Entries after “also recorded” stand apart in the source; their conditions may differ.

In the case of `C[C@@H]1C(=O)O[C@H]2[C@H](O)C34[C@H]5C[C@@H](C(C)(C)C)C36C(O)C(=O)O[C@H]6O[C@@]4(C(=O)O5)[C@@]12O` (some centres unmarked) [GKB, ginkgolide B], the “MDA-231 cell proliferation (BrdU incorporation)” value in data set [1] (10% FBS, EGB 761® up to 96 h, GKB 2 or 20 μg/ml 48 hours) is reported as “significantly altered; also recorded: inhibited”. The “toxicity for the cells (recovery of proliferation upon removal)” value in data set [1] (highest concentrations used) is “cytostatic and not cytotoxic”. Moreover, the “MCF-7 cell proliferation (BrdU incorporation)” value in data set [2] is recorded as “altered to a lesser degree”. In addition, the “decrease of PBR levels (PBR ligand binding capacity, Bmax)” value in data set [3] is given as 66%. Moreover, the “PBR mRNA levels” value in data set [4] is recorded as “reduced”. In data set [5], the cell death entry is “neither EGB 761® nor GKB induced any significant cell death”. For the same molecule, in data set [6], the “effect on free radical / reactive oxygen species production” value was “absence of any significant decrease”. Also, the “nuclear PBR expression in cells found in the middle of the tumor” value in data set [7] is listed as “reduced”. Besides, the “nuclear PBR expression in the cells at the edge of the tumors” value in data set [7] (cytosolic immunostaining could be seen) is listed as “eliminated”. Further, in data set [8] (1 mg/kg ip once a day for 30 days, measured a month after the end of the treatment, p=0.043), the “decrease in tumor size” value worked out at 32%. Moreover, the animal body weight result in data set [8] (30 days treatment, 50 mg/kg EGB 761® or 1 mg/kg GKB, data not shown) is recorded as “did not affect”.
